Values of other authors in patent US11033601B2, “Selective inhibition of V1b for treating fatty liver” (The Regents of the University of Colorado, priority 2017, dated 2021).

Molecular target: V2 receptors (Homo sapiens, UniProt P30518)
Sequence (P30518 whole entry): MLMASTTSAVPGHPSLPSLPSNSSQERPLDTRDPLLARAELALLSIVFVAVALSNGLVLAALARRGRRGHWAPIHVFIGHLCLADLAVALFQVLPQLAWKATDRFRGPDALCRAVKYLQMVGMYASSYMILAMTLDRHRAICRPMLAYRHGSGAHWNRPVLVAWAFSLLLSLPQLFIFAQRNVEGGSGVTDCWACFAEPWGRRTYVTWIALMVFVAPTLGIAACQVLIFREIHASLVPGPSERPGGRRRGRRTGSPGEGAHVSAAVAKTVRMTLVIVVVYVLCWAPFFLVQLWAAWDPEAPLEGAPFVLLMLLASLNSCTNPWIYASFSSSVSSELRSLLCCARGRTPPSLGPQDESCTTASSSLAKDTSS

COc1ccc(S(=O)(=O)N2C(=O)[C@@](c3ccccc3OC)(N3C[C@H](O)C[C@H]3C(=O)N(C)C)c3cc(Cl)ccc32)c(OC)c1 [Nelivaptan]
effects on V2 receptors: little effects
